How the values were obtained:
Format in all cases: functional
SF-295 = assay: Antiproliferative activity against human SF295 cells assessed as cell growth at 0.5 uM by SRB assay; settings: read-out: Activity
HT-29 = assay: Antiproliferative activity against human HT-29 cells assessed as cell growth at […] by SRB assay; settings: read-out: Activity
SF-539 [1] = assay: Antiproliferative activity against human SF539 cells assessed as cell growth at 0.5 uM by SRB assay; settings: read-out: Activity
SK-OV-3 = assay: Antiproliferative activity against human SKOV3 cells assessed as cell growth at 0.5 uM by SRB assay; settings: read-out: Activity
SR = assay: Antiproliferative activity against human SR cells assessed as cell growth at 500 uM by SRB assay; settings: read-out: Activity
OVCAR-5 [2] = assay: Antiproliferative activity against human OVCAR5 cells at 0.5 uM by SRB assay
HOP-62 = assay: Antiproliferative activity against human HOP62 cells assessed as cell growth at 50 uM by SRB assay; settings: read-out: Activity
SK-MEL-28 [3] = assay: Antiproliferative activity against human SK-MEL-28 cells assessed as cell growth at 50 uM by SRB assay; settings: read-out: Activity
MOLT-4 = assay: Antiproliferative activity against human MOLT4 cells assessed as cell growth at 0.5 uM by SRB assay; settings: read-out: Activity
MDA-MB-435 [4] = assay: Antiproliferative activity against human MDA-MB-435 cells assessed as cell growth at 5 mM by SRB assay; settings: read-out: Activity
HL-60(TB) = assay: Antiproliferative activity against human HL-60(TB) cells assessed as cell growth at 500 uM by SRB assay; settings: read-out: Activity
MDA-MB-435 [5] = assay: Antiproliferative activity against human MDA-MB-435 cells assessed as cell growth at 50 uM by SRB assay; settings: read-out: Activity
SF-539 [6] = assay: Antiproliferative activity against human SF539 cells assessed as cell growth at 500 uM by SRB assay; settings: read-out: Activity
HCC 2998 = assay: Antiproliferative activity against human HCC2998 cells by SRB assay
OVCAR-5 [7] = assay: Antiproliferative activity against human OVCAR5 cells at 500 uM by SRB assay
786-0 = assay: Antiproliferative activity against human 786-0 cells assessed as cell growth at 500 uM by SRB assay; settings: read-out: Activity
EKVX = assay: Antiproliferative activity against human EKVX cells assessed as cell growth at […] by SRB assay; settings: read-out: Activity
NCI/ADR-RES [8] = assay: Antiproliferative activity against human NCI/ADR-RES cells assessed as cell growth at 5 uM by SRB assay; settings: read-out: Activity
SN12C = assay: Antiproliferative activity against human SN12C cells assessed as cell growth at 0.5 uM by SRB assay; settings: read-out: Activity
SK-MEL-28 [9] = assay: Antiproliferative activity against human SK-MEL-28 cells assessed as cell growth at 5 uM by SRB assay; settings: read-out: Activity
UACC-62 [10] = assay: Antiproliferative activity against human UACC62 cells assessed as cell growth at 0.5 uM by SRB assay; settings: read-out: Activity
DU-145 = assay: Antiproliferative activity against human DU145 cells assessed as cell growth at 500 uM by SRB assay; settings: read-out: Activity
A498 = assay: Antiproliferative activity against human A498 cells assessed as cell growth at […] by SRB assay; settings: read-out: Activity
HCT-116 = assay: Antiproliferative activity against human HCT116 cells by SRB assay
SK-MEL-28 [11] = assay: Antiproliferative activity against human SK-MEL-28 cells assessed as cell growth at 500 uM by SRB assay; settings: read-out: Activity
COLO 205 [12] = assay: Antiproliferative activity against human COLO205 cells assessed as cell growth at 500 uM by SRB assay; settings: read-out: Activity
NCI/ADR-RES [13] = assay: Antiproliferative activity against human NCI/ADR-RES cells assessed as cell growth at 0.5 uM by SRB assay; settings: read-out: Activity
UACC-62 [14] = assay: Antiproliferative activity against human UACC62 cells assessed as cell growth at 500 uM by SRB assay; settings: read-out: Activity
NCI-H23 = assay: Antiproliferative activity against human NCI-H23 cells assessed as cell growth at 0.5 uM by SRB assay; settings: read-out: Activity
COLO 205 [15] = assay: Antiproliferative activity against human COLO205 cells by SRB assay
NCI-H522 = assay: Antiproliferative activity against human NCI-H522 cells assessed as cell growth at 50 uM by SRB assay; settings: read-out: Activity
NCI-H460 = assay: Antiproliferative activity against human NCI-H460 cells assessed as cell growth at 50 uM by SRB assay; settings: read-out: Activity
MDA-MB-231 = assay: Antiproliferative activity against human MDA-MB-231 cells assessed as cell growth at 0.5 uM by SRB assay; settings: read-out: Activity
U-251 = assay: Antiproliferative activity against human U251 cells assessed as cell growth at 50 uM by SRB assay; settings: read-out: Activity
CCRF-CEM = assay: Antiproliferative activity against human CCRF-CEM cells assessed as cell growth at 0.5 uM by SRB assay; settings: read-out: Activity
[16] = Antiproliferative activity against human […] cells assessed as cell growth at 50 uM by SRB assay; settings: read-out: Activity
SW-620 = assay: Antiproliferative activity against human SW620 cells assessed as cell growth at 5 mM by SRB assay; settings: read-out: Activity
OVCAR-3 = assay: Antiproliferative activity against human OVCAR-3 cells assessed as cell growth at 50 uM by SRB assay; settings: read-out: Activity
SK-MEL-5 = assay: Antiproliferative activity against human SK-MEL-5 cells by SRB assay
[17] = Antiproliferative activity against human Hs 578T cells assessed as cell growth at 500 uM by SRB assay; settings: read-out: Activity
HCT-15 = assay: Antiproliferative activity against human HCT15 cells by SRB assay
SK-MEL-28 [18] = assay: Antiproliferative activity against human SK-MEL-28 cells assessed as cell growth at 0.5 uM by SRB assay; settings: read-out: Activity
NCI-H226 = assay: Antiproliferative activity against human NCI-H226 cells by SRB assay
[19] = read-out: LC50 (the source's name)
[20] = read-out: pLC50 (the source's name) (converted)

O=C(/C=C/c1ccc(O)c(O)c1)OCCc1ccc(O)c(O)c1
growth at 0.5 µM (SF-295): 98% | growth (HT-29): 34% | growth at 0.5 µM (SF-539 [1]): 90% | growth at 0.5 µM (SK-OV-3): 99% | growth at 500 µM (SR): 20% | Activity (OVCAR-5 [2]): 94% | growth at 50 µM (HOP-62): 97% | growth at 50 µM (SK-MEL-28 [3]): 93% | growth at 0.5 µM (MOLT-4): 101% | growth at 5000 µM (MDA-MB-435 [4]): 17% | growth at 500 µM (HL-60(TB)): 37% | growth at 50 µM (MDA-MB-435 [5]): 89% | growth at 500 µM (SF-539 [6]): 55% | GI50 (HCC 2998; read-out: GI50): 14.6 µM | CC50 (HCC 2998; [19]): > 50 µM | TGI (HCC 2998; read-out: TGI): > 50 µM | GI50 (HCC 2998; read-out: pGI50 (converted)): 14.5 µM | CC50 (HCC 2998; [20]): > 50.1 µM | TGI (HCC 2998; read-out: pTGI): > 50.1 µM | Activity (OVCAR-5 [7]): 102% | growth at 500 µM (786-0): 81% | growth (EKVX): 19% | growth at 5 µM (NCI/ADR-RES [8]): 98% | growth at 0.5 µM (SN12C): 74% | growth at 5 µM (SK-MEL-28 [9]): 89% | growth at 0.5 µM (UACC-62 [10]): 91% | growth at 500 µM (DU-145): 80% | growth (A498): -11% | GI50 (HCT-116; read-out: GI50): 11.2 µM | CC50 (HCT-116; [19]): > 50 µM | TGI (HCT-116; read-out: TGI): > 50 µM | GI50 (HCT-116; read-out: pGI50 (converted)): 11.2 µM | CC50 (HCT-116; [20]): > 50.1 µM | TGI (HCT-116; read-out: pTGI): > 50.1 µM | growth at 500 µM (SK-MEL-28 [11]): 55% | growth at 500 µM (COLO 205 [12]): 84% | growth at 0.5 µM (NCI/ADR-RES [13]): 97% | growth at 500 µM (UACC-62 [14]): 52% | growth at 0.5 µM (NCI-H23): 90% | GI50 (COLO 205 [15]; read-out: GI50): 18.8 µM | CC50 (COLO 205 [15]; [19]): > 50 µM | TGI (COLO 205 [15]; read-out: TGI): > 50 µM | GI50 (COLO 205 [15]; read-out: pGI50 (converted)): 18.6 µM | CC50 (COLO 205 [15]; [20]): > 50.1 µM | TGI (COLO 205 [15]; read-out: pTGI): > 50.1 µM | growth at 50 µM (NCI-H522): 77% | growth at 50 µM (NCI-H460): 100% | growth at 0.5 µM (MDA-MB-231): 113% | growth at 50 µM (U-251): 98% | growth at 0.5 µM (CCRF-CEM): 95% | growth at 50 µM [16]: 54% | growth at 5000 µM (SW-620): 19% | growth at 50 µM (OVCAR-3): 90% | GI50 (SK-MEL-5; read-out: GI50): 8.12 µM | CC50 (SK-MEL-5; [19]): > 50 µM | TGI (SK-MEL-5; read-out: TGI): 47.7 µM | GI50 (SK-MEL-5; read-out: pGI50 (converted)): 8.13 µM | CC50 (SK-MEL-5; [20]): > 50.1 µM | TGI (SK-MEL-5; read-out: pTGI (converted)): 47.9 µM | growth at 500 µM [17]: 67% | GI50 (HCT-15; read-out: GI50): 2.25 µM | CC50 (HCT-15; [19]): > 50 µM | TGI (HCT-15; read-out: TGI): > 50 µM | GI50 (HCT-15; read-out: pGI50 (converted)): 1.41 µM | CC50 (HCT-15; [20]): > 50.1 µM | TGI (HCT-15; read-out: pTGI): > 50.1 µM | growth at 0.5 µM (SK-MEL-28 [18]): 97% | GI50 (NCI-H226; read-out: GI50): 13.3 µM | CC50 (NCI-H226; [19]): > 50 µM | TGI (NCI-H226; read-out: TGI): > 50 µM | GI50 (NCI-H226; read-out: pGI50 (converted)): 13.5 µM | CC50 (NCI-H226; [20]): > 50.1 µM | TGI (NCI-H226; read-out: pTGI): > 50.1 µM
